Reference: PubChem BioAssay (NCI)
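Cultured in 96-well plates, cells were exposed to test compound for 48 hours across five concentrations. The concentration for 50% growth inhibition is given as GI50. TGI is the concentration that stops growth completely.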

Tests used:
Test in all cases: growth of human tumour cells (NCI), 48 h
K-562 leukemia = system: K-562 leukemia
SK-MEL-5 melanoma = system: SK-MEL-5 melanoma
HT29 colon = system: HT29 colon
RXF 393 renal = system: RXF 393 renal
NCI-H23 lung = system: NCI-H23 lung
SN12C renal = system: SN12C renal
HOP-92 NSCLC = system: HOP-92 NSCLC
BT-549 breast = system: BT-549 breast
DU-145 prostate = system: DU-145 prostate
HS 578T breast = system: HS 578T breast

Row | SMILES | TGI (K-562 leukemia) [µM] | TGI (SK-MEL-5 melanoma) [µM] | TGI (HT29 colon) [µM] | TGI (RXF 393 renal) [µM] | TGI (NCI-H23 lung) [µM] | TGI (SN12C renal) [µM] | TGI (HOP-92 NSCLC) [µM] | TGI (BT-549 breast) [µM] | TGI (DU-145 prostate) [µM] | GI50 (K-562 leukemia) [µM] | GI50 (SK-MEL-5 melanoma) [µM] | GI50 (HT29 colon) [µM] | GI50 (RXF 393 renal) [µM] | GI50 (NCI-H23 lung) [µM] | GI50 (BT-549 breast) [µM] | GI50 (DU-145 prostate) [µM] | GI50 (HS 578T breast) [µM] | TGI (HS 578T breast) [µM] | GI50 (HOP-92 NSCLC) [µM] | GI50 (SN12C renal) [µM]
1 | CC(=O)NC(C=O)C(O[C@H](C)C(=O)NC(C)C(=O)NC(CCC(N)=O)C(=O)OCc1ccccc1)C(O)C(O)COC(=O)CCNc1c2ccccc2nc2cccc([N+](=O)[O-])c12 (stereo not given in full) | 9.62 | > 100 | 7.88 | 12 | 9.45 | 5.62 | 5.41 |  |  |  |  |  |  |  |  |  |  |  |  | 
2 | CC(=O)OC1=CC2(OC(C)=O)CC(C)(C)C1C1C(=O)C=CC(=O)C12 (stereo not given) | > 100 | > 100 | 47.9 | > 100 | > 100 | > 80.5 | > 100 | 32.3 | > 100 |  |  |  |  |  |  |  |  |  |  | 
3 | c1ccc(OCc2nnc3n2N=C(c2ccccc2)CS3)cc1 | > 100 | > 100 | > 100 | > 100 | > 100 | > 100 | > 100 |  |  |  |  |  |  |  |  |  |  |  |  | 
4 | Cc1ccc(NC(=O)CCc2n[nH]c(=S)o2)cc1 | > 100 | > 100 | > 100 | > 100 | > 100 | > 100 | > 100 |  |  |  |  |  |  |  |  |  |  |  |  | 
5 | CC(=O)c1ccc(NC(=O)COC(=O)c2cccc3c(=O)c4ccccc4[nH]c23)cc1 | > 100 | > 100 | > 100 | > 100 | > 100 | > 100 | > 100 |  |  |  |  |  |  |  |  |  |  |  |  | 
6 | CCCCCCCCCCCc1c(O)c(=O)c2c(oc3c(=O)c(CCCCCCCCCCC)c(O)c(=O)c3n2-c2ccc(N(C)C)cc2)c1=O | > 100 | 34 | 46.8 | 44.4 | 47.1 | 36.8 |  |  |  |  |  |  |  |  |  |  |  |  |  | 
7 | Cc1c2c(c(C)c3c1[nH]c1ccccc13)CN(C)CC2 | > 100 | 26.1 | 36.3 | 34.6 | 56.3 | 76.6 | 57.5 |  |  |  |  |  |  |  |  |  |  |  |  | 
8 | O=Cc1ccc(-c2ccc(-c3nc4ccccc4s3)cc2)s1 | > 100 | > 100 | > 100 | > 100 | > 100 |  |  | > 100 | > 100 | 37.1 | 27.1 | 77.3 | > 100 | 84.2 | 63.8 | 73 |  |  |  | 
9 | NC(=O)NC1C(C(=O)O)N(Cc2ccccc2)C(=O)N1Cc1ccccc1 (stereo not given) | > 100 | > 100 | > 100 |  | > 100 |  | > 100 |  |  |  |  |  |  |  |  |  |  |  |  | 
10 | Cl.Fc1c[c-]c(-c2ccccn2)c(F)c1.[Pt].c1ccc([PH+](C[PH+](c2ccccc2)c2ccccc2)c2ccccc2)cc1 | 0.573 |  |  | 0.741 |  |  | 0.48 |  | 1.33 | 0.0483 |  |  | 0.251 |  |  | 0.355 | 0.312 | 1.56 | 0.155 | 
11 | COc1ccc(C(=O)C#Cc2c[nH]c(=O)[nH]c2=O)cc1 | 37.3 | 27.9 | 28 | 18.3 | 32.8 | 19.4 | 41.8 |  |  |  |  |  |  |  |  |  |  |  |  | 
12 | COc1cc(Cl)cc(-c2nn(-c3cccc(NC(=O)Nc4ccc(Cl)c(Cl)c4)c3)cc2-c2ccncc2)c1 | > 100 | 3.17 | 9.07 | 7.25 | 9.04 | > 100 |  | 8.28 | > 100 | 1.96 | 1.62 | 2.38 | 1.96 | 2.62 | 2.62 | 3.85 | 3.89 | > 100 |  | 3.1
13 | Cc1nc2cc(Nc3nc(Nc4ccc(F)cc4)nc(N4CCOCC4)n3)ccc2n1Cc1ccccc1 | 11.7 | 11.1 | 4.07 |  | 30.6 | 27.4 |  | 25.7 | 18.8 | 2.94 | 2.9 | 1.93 |  | 6.43 | 8.19 | 4.81 | 3.84 | 58.5 |  | 4.63
14 | COCCOCCOCCOc1cccc2c1C(=O)c1cccc(OCCOCCOCCOC)c1C2=O | > 100 | > 100 | > 100 | > 100 | > 100 | > 100 | > 100 |  |  |  |  |  |  |  |  |  |  |  |  | 
15 | O=C1OC(=O)C2C3C=CC(C12)C1C2C=CC2C31 (stereo not given) | > 100 |  | > 100 | > 100 | > 100 | > 100 | > 100 |  |  |  |  |  |  |  |  |  |  |  |  | 
16 | O=C(NCCCl)SCCO | > 100 |  | > 100 | > 100 | > 100 | > 100 |  |  |  |  |  |  |  |  |  |  |  |  |  | 
17 | COc1cccc(N2C(=O)C3C4C=C5c6ccccc6N(c6ccccc6)C5(C3C2=O)[C@H]2C(=O)N(c3cccc(OC)c3)C(=O)[C@@H]42)c1 (stereo not given in full) | > 100 | > 100 | > 100 | > 100 | > 100 | > 100 | > 100 |  |  |  |  |  |  |  |  |  |  |  |  | 
18 | C/C(=N\NC(=S)N1CCCCCC1)c1cccc2cccnc12 | > 100 |  | 19.1 | > 100 | 15.5 |  | > 100 | > 92.4 | > 100 |  |  |  |  |  |  |  |  | > 100 |  | 
19 | COc1cc(C)c2sc3ccccc3c(=O)c2c1NCCN(C)C | 4.61 | 3.08 | 9.15 | 9.41 | 28 | 20 | 8.64 | 25.4 | 20 | 2.3 | 1.67 | 2.62 | 2.4 | 13.1 | 12.5 | 7 |  |  | 1.51 | 5.41
20 | COc1ccc(C(=O)c2sc3nc(-c4cccs4)ccc3c2N)cc1OC | > 100 | 5.28 | 17.4 | > 100 |  | > 100 |  | > 100 | > 100 | 2.1 | 2.01 | 3.65 | 9.98 |  | 3.82 | 16 | 6.27 | > 100 |  | 11
21 | COC(=O)Cc1cc(=O)[nH]c2c1C(=O)CCC2 | > 100 | > 100 | > 100 | > 100 | > 100 | > 100 | > 100 |  |  |  |  |  |  |  |  |  |  |  |  | 
22 | CC([O-])=C1C(=O)c2ccccc2C1=O.CC([O-])=C1C(=O)c2ccccc2C1=O.CC[O-].CC[O-].[Ti+4] | > 100 | > 100 | > 100 |  | > 100 | > 100 | > 100 |  |  | > 100 | > 100 | > 100 |  | > 100 |  |  |  |  | > 100 | > 100
23 | O=C1CCCCC12CCC/C2=N\O (stereo not given) | > 100 | > 100 |  | > 100 |  | > 100 |  |  |  |  |  |  |  |  |  |  |  |  |  | 
